Results reported in patent US20240116985A1, “STAPLED PEPTIDES AND METHODS THEREOF” (priority 2020, published 2024).
≈ marks a conversion by molar mass, not a printed value. Like-named read-outs stand apart in the source and are kept apart here. One block for each molecule: values may come before it.

Columns and labels:
Solubility in PBS = type: physicochemical
Outline: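 The PBS solution was ultracentrifuged and the supernatant analyzed by HPLC. Its peak area was divided by that of a 50 μM peptide DMSO reference injection and multiplied by 50 uM to give solubility.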

[1] = target: T1, full-length beta-Catenin (Uniprot ID P35222) (Homo sapiens, UniProt P35222); experiment: Fluorescence polarization IC50 (beta-catenin / 5FAM-TCF4 10-53 competition); type: binding
T1 construct: 10 nM full-length beta-Catenin (Uniprot ID P35222)
T1 sequence (P35222 1-781): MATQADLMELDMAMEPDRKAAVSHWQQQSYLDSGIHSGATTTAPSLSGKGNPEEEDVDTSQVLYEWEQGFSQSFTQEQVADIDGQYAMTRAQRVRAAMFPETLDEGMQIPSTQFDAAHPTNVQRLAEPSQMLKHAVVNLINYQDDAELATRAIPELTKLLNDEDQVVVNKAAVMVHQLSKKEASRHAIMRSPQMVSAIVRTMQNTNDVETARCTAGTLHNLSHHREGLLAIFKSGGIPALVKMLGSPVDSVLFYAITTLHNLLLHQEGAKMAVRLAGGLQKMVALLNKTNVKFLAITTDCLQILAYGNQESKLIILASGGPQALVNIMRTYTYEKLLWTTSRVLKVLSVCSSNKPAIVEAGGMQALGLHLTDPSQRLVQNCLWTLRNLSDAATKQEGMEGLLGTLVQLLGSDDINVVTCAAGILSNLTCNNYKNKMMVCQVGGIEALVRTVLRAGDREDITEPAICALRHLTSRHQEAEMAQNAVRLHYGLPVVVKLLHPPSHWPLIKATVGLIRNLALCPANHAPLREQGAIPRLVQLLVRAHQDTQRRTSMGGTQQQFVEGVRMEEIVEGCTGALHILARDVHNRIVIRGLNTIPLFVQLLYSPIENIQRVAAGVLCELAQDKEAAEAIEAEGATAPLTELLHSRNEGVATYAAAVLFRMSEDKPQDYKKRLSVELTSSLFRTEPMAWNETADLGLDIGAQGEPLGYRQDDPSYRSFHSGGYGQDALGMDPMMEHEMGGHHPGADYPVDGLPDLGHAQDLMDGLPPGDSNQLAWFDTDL

[2] = fluorescence polarization, read-out: beta-Catenin FP IC50

Compound: CC(=O)N1CCC[C@]12CC=CCCCC1(CCCC=CCCCOC(=O)N3CC[C@@](C(=O)N[C@@H](Cc4ccccc4Cl)C(=O)N[C@@H](Cc4csc5ccccc45)C(=O)N[C@H](C(N)=O)[C@@H](C)O)(C3)NC(=O)[C@H](CO)NC(=O)[C@H](Cc3ccccc3)NC(=O)[C@H](C)NC(=O)[C@H](C)NC(=O)[C@H](CC(=O)O)NC(=O)[C@H](CC(=O)O)NC1=O)NC(=O)[C@H](CC1CCCCC1)NC(=O)[C@H](CC(=O)O)NC2=O (stereo partly drawn) [I-1135, Ac-PL3-Asp-Cha-B5-Asp-Asp-Ala-Ala-Phe-Ser-PyrS2-2C1F-BztA-Thr-NH2]
Solubility (Solubility in PBS; Solubility (uM)): 39 µM (≈ 74.8 µg/mL) | IC50 [1, 2]: 20 nM

Compound: CC(=O)N1CCC[C@]12CC=CCCCC1(CCCC=CCCCOC(=O)N3CC[C@@](C(=O)N[C@@H](Cc4ccccc4Cl)C(=O)N[C@@H](Cc4csc5ccccc45)C(=O)N[C@@H](CC(C)C)C(N)=O)(C3)NC(=O)[C@H](CO)NC(=O)[C@H](Cc3ccccc3)NC(=O)[C@H](C)NC(=O)[C@H](C)NC(=O)[C@H](CC(=O)O)NC(=O)[C@H](CC(=O)O)NC1=O)NC(=O)[C@H](Cc1ccccc1)NC(=O)[C@H](CC(=O)O)NC2=O (stereo partly drawn) [I-1144, Ac-PL3-Asp-Phe-B5-Asp-Asp-Ala-Ala-Phe-Ser-PyrS2-2C1F-BztA-Leu-NH2]
Solubility (Solubility in PBS; Solubility (uM)): 32 µM (≈ 61.6 µg/mL) | IC50 [1, 2]: 28 nM

Compound: CC(=O)N1CCC[C@]12CC=CCCCC1(CCCC=CCCCOC(=O)N3CC[C@@](C(=O)N[C@@H](Cc4ccccc4Cl)C(=O)N[C@@H](Cc4csc5ccccc45)C(=O)N[C@@H](CCC(N)=O)C(N)=O)(C3)NC(=O)[C@H](CO)NC(=O)[C@H](Cc3ccccc3)NC(=O)[C@H](CC(C)C)NC(=O)[C@H](CC(C)C)NC(=O)[C@H](CC(=O)O)NC(=O)[C@H](CC(=O)O)NC1=O)NC(=O)[C@H](CC1CCCCC1)NC(=O)[C@H](CC(=O)O)NC2=O (stereo partly drawn) [I-1149, Ac-PL3-Asp-Cha-B5-Asp-Asp-Leu-Leu-Phe-Ser-PyrS2-2C1F-BztA-Gln-NH2]
Solubility (Solubility in PBS): 10 µM (≈ 20.3 µg/mL) | IC50 [1, 2]: 70 nM

Compound: CC(=O)N1CCC[C@]12CC=CCCCC1(CCCC=CCCCOC(=O)N3CC[C@@](C(=O)N[C@@H](Cc4ccccc4Cl)C(=O)N[C@@H](Cc4csc5ccccc45)C(=O)N[C@@H](CO)C(N)=O)(C3)NC(=O)[C@H]([C@@H](C)O)NC(=O)[C@H](Cc3ccccc3)NC(=O)[C@H](CC(C)C)NC(=O)[C@H](CC(C)C)NC(=O)[C@H](CC(=O)O)NC(=O)[C@H](CC(=O)O)NC1=O)NC(=O)[C@H](Cc1ccccc1)NC(=O)[C@H](CC(=O)O)NC2=O (stereo partly drawn) [I-1158, Ac-PL3-Asp-Phe-B5-Asp-Asp-Leu-Leu-Phe-Thr-PyrS2-2C1F-BztA-Ser-NH2]
Solubility (Solubility in PBS): 29 µM (≈ 57.9 µg/mL) | IC50 ([1]; beta-Catenin FP IC50, fluorescence polarization): 168 nM

Compound: CCN(CC)C(=O)[C@H](CCC(N)=O)NC(=O)[C@H](Cc1csc2ccccc12)NC(=O)[C@H](Cc1ccsc1)NC(=O)[C@]12CCN(C1)C(=O)OCCCC=CCCCC1(CCCC=CC[C@]3(CCCN3C(C)=O)C(=O)N[C@@H](CC(=O)O)C(=O)N[C@@H](CC(C)(C)C)C(=O)N1)C(=O)N[C@@H](CC(=O)O)C(=O)N[C@@H](CC(=O)O)C(=O)N[C@@H](C)C(=O)N[C@@H](C)C(=O)N[C@@H](Cc1ccccc1)C(=O)N[C@@H](CC(N)=O)C(=O)N2 (stereo partly drawn) [I-1373, PL3-Asp-Npg-B5-Asp-Asp-Ala-Ala-Phe-Asn-PyrS2-3Thi-BztA-Gln-NEt2]
Solubility (Solubility in PBS): 50 µM (≈ 98.7 µg/mL)

Compound: CC(=O)N1CCC[C@]12CC=CCCCC1(CCCC=CCCCOC(=O)N3CC[C@@](C(=O)N[C@@H](Cc4ccsc4)C(=O)N[C@@H](Cc4csc5ccccc45)C(=O)N[C@@H](CCC(N)=O)C(=O)NC4CCCCC4)(C3)NC(=O)[C@H](CC(N)=O)NC(=O)[C@H](Cc3ccccc3)NC(=O)[C@H](C)NC(=O)[C@H](C)NC(=O)[C@H](CC(=O)O)NC(=O)[C@H](CC(=O)O)NC1=O)NC(=O)[C@H](CC(C)(C)C)NC(=O)[C@H](CC(=O)O)NC2=O (stereo partly drawn) [I-1374, PL3-Asp-Npg-B5-Asp-Asp-Ala-Ala-Phe-Asn-PyrS2-3Thi-BztA-Gln-NHCyHe]
Solubility (Solubility in PBS): 10 µM (≈ 20 µg/mL)

Compound: CC(=O)N1CCC[C@]12CC=CCCCC1(CCCC=CCCCOC(=O)N3CC[C@@](C(=O)N[C@@H](Cc4ccsc4)C(=O)N[C@@H](Cc4csc5ccccc45)C(=O)N[C@@H](CCC(N)=O)C(=O)NC4CC4)(C3)NC(=O)[C@H](CC(N)=O)NC(=O)[C@H](Cc3ccccc3)NC(=O)[C@H](C)NC(=O)[C@H](C)NC(=O)[C@H](CC(=O)O)NC(=O)[C@H](CC(=O)O)NC1=O)NC(=O)[C@H](CC(C)(C)C)NC(=O)[C@H](CC(=O)O)NC2=O (stereo partly drawn) [I-1375, PL3-Asp-Npg-B5-Asp-Asp-Ala-Ala-Phe-Asn-PyrS2-3Thi-BztA-Gln-NHCyPr]
Solubility (Solubility in PBS): 50 µM (≈ 97.9 µg/mL)

Second part, the molecule after the results:

Solubility (Solubility in PBS; Solubility (uM)): 48 µM (≈ 93.8 µg/mL) | IC50 [1, 2]: 14 nM
Compound: CC(=O)N1CCC[C@]12CC=CCCCC1(CCCC=CCCCOC(=O)N3CC[C@@](C(=O)N[C@@H](Cc4ccccc4Cl)C(=O)N[C@@H](Cc4csc5ccccc45)C(=O)N[C@@H](CO)C(N)=O)(C3)NC(=O)[C@H]([C@@H](C)O)NC(=O)[C@H](Cc3ccccc3)NC(=O)[C@H](C)NC(=O)[C@H](CC(C)C)NC(=O)[C@H](CC(=O)O)NC(=O)[C@H](CC(=O)O)NC1=O)NC(=O)[C@H](Cc1ccccc1)NC(=O)[C@H](CC(=O)O)NC2=O (stereo partly drawn) [I-1156, Ac-PL3-Asp-Phe-B5-Asp-Asp-Leu-Ala-Phe-Thr-PyrS2-2C1F-BztA-Ser-NH2]

solubility at 15 min (Solubility in PBS; Solubility (uM)): 14 µM (≈ 27.4 µg/mL)
Compound: CC(=O)N1CCC[C@]12CC=CCCCC1(CCCC=CCCCOC(=O)N3CC[C@@](C(=O)N[C@@H](CCc4ccccc4)C(=O)N[C@@H](Cc4csc5ccccc45)C(=O)N[C@@H](CCC(N)=O)C(N)=O)(C3)NC(=O)[C@H](Cc3ccccc3)NC(=O)[C@H](Cc3ccccc3)NC(=O)[C@H](C)NC(=O)[C@H](C)NC(=O)[C@H](CC(=O)O)NC(=O)[C@H](CC(=O)O)NC1=O)NC(=O)[C@H](CC(C)(C)C)NC(=O)[C@H](CC(=O)O)NC2=O (stereo partly drawn) [I-1351, PL3-Asp-Npg-B5-Asp-Asp-Ala-Ala-Phe-Phe-PyrS2-hPhe-BztA-Gln-NH2]

solubility at 15 min (Solubility in PBS; Solubility (uM)): 44 µM (≈ 83.7 µg/mL)
Compound: CC(=O)N1CCC[C@]12CC=CCCCC1(CCCC=CCCCOC(=O)N3CC[C@@](C(=O)N[C@@H](CC4CCCC4)C(=O)N[C@@H](Cc4csc5ccccc45)C(=O)N[C@@H](CCC(N)=O)C(N)=O)(C3)NC(=O)[C@H](CC(C)C)NC(=O)[C@H](Cc3ccccc3)NC(=O)[C@H](C)NC(=O)[C@H](C)NC(=O)[C@H](CC(=O)O)NC(=O)[C@H](CC(=O)O)NC1=O)NC(=O)[C@H](CC(C)(C)C)NC(=O)[C@H](CC(=O)O)NC2=O (stereo partly drawn) [I-1353, PL3-Asp-Npg-B5-Asp-Asp-Ala-Ala-Phe-Leu-PyrS2-CypA-BztA-Gln-NH2]

solubility at 15 min (Solubility in PBS; Solubility (uM)): 48 µM (≈ 90.6 µg/mL)
Compound: COCCC(=O)N1CCC[C@]12CC=CCCCC1(CCCC=CCCCOC(=O)N3CC[C@@](C(=O)N[C@@H](Cc4ccccc4)C(=O)N[C@@H](Cc4csc5ccccc45)C(=O)N[C@@H](CO)C(N)=O)(C3)NC(=O)[C@H](CO)NC(=O)[C@H](Cc3ccccc3)NC(=O)[C@H](C)NC(=O)[C@H](C)NC(=O)[C@H](CC(=O)O)NC(=O)[C@H](CC(=O)O)NC1=O)NC(=O)[C@H](CC(C)(C)C)NC(=O)[C@H](CC(=O)O)NC2=O (stereo partly drawn) [I-1357, PL3-Asp-Npg-B5-Asp-Asp-Ala-Ala-Phe-Ser-PyrS2-Phe-BztA-Ser-NH2]

Solubility (Solubility in PBS): 10 µM (≈ 19.7 µg/mL)
Compound: CC(=O)N1CCC[C@]12CC=CCCCC1(CCCC=CCCCOC(=O)N3CC[C@@](C(=O)N[C@@H](Cc4ccccc4)C(=O)N[C@@H](Cc4csc5ccccc45)C(=O)N[C@@H](CCC(N)=O)C(N)=O)(C3)NC(=O)[C@H](CC(C)C)NC(=O)[C@H](Cc3ccccc3)NC(=O)[C@H](C)NC(=O)[C@H](CCCCNC(C)C)NC(=O)[C@H](CCCCN)NC(=O)[C@H](CC(N)=O)NC1=O)NC(=O)[C@H](C)NC(=O)[C@H](CC(=O)O)NC2=O (stereo partly drawn) [I-1380, Ac-PL3-Asp-Ala-B5-Asn-Lys-iPrLys-Ala-Phe-Leu-PyrS2-Phe-BztA-Gln-NH2]

Solubility (Solubility in PBS): 10 µM (≈ 19.3 µg/mL)
Compound: CC(=O)N1CCC[C@]12CC=CCCCC1(CCCC=CCCCOC(=O)N3CC[C@@](C(=O)N[C@@H](Cc4ccccc4)C(=O)N[C@@H](Cc4ccc5ccccc5c4)C(=O)N[C@@H](CCC(N)=O)C(N)=O)(C3)NC(=O)[C@H](CC(C)C)NC(=O)[C@H](Cc3ccccc3)NC(=O)[C@H](C)NC(=O)[C@H](CCCCNC(C)C)NC(=O)[C@H]([C@@H](C)O)NC(=O)[C@H](CC(N)=O)NC1=O)NC(=O)[C@H](C)NC(=O)[C@H](CC(=O)O)NC2=O (stereo partly drawn) [I-1381, Ac-PL3-Asp-Ala-B5-Asn-Thr-iPrLys-Ala-Phe-Leu-PyrS2-Phe-2NapA-Gln-NH2]

Solubility (Solubility in PBS): 10 µM (≈ 19.1 µg/mL)
Compound: CC(=O)N1CCC[C@]12CC=CCCCC1(CCCC=CCCCOC(=O)N3CC[C@@](C(=O)N[C@@H](Cc4ccccc4)C(=O)N[C@@H](Cc4csc5ccccc45)C(=O)N[C@H](C(N)=O)[C@@H](C)O)(C3)NC(=O)[C@H](CC(C)C)NC(=O)[C@H](Cc3ccccc3)NC(=O)[C@H](C)NC(=O)[C@H](CCCCNC(C)C)NC(=O)[C@H]([C@@H](C)O)NC(=O)[C@H](CC(=O)O)NC1=O)NC(=O)[C@H](C)NC(=O)[C@H](CC(N)=O)NC2=O (stereo partly drawn) [I-1384, Ac-PL3-Asn-Ala-B5-Asp-Thr-iPrLys-Ala-Phe-Leu-PyrS2-Phe-BztA-Thr-NH2]
